Results as given in patent US20090233906A1, “IMIDAZOAZEPINONE COMPOUNDS” (priority 2006, published 2009).

Test system: human T-bet
Experiment: HEKT-bet-luc assay (normalized)
Type: cell-based
Settings: Homo sapiens, HEK293, 24 h, normalized HEKT-bet-luc IC50; engineered HEK cells, T-box responsive luciferase reporter, compound 24 hours; normalized to reference ER-819544; read-out: IC50
Protocol: HEKT-bet-luc assay: This assay measures a T-bet dependent reporter (luciferase) activity in engineered HEK cells that express a human T-bet and a T-box responsive element driving luciferase reporter. HEKT-bet cells were plated at 2×10^4/well in 96-well plate and compound was added into cell culture for 24 hours. Luciferase activity was measured by adding 50 μl of Steady-Glo reagent (Promega) and samples were read in Victor V reader (PerkinElmer). The activity of compound was determined by comparing compound treated samples to non-compound treated vehicle controls. The IC50 values were calculated utilizing a maximum value corresponding to the amount of luciferase in the absence of a test compound and a minimum value corresponding to a test compound value obtained at maximum inhibition.
Determination of Normalized HEKT-bet IC50 values: Compounds were assayed in microtiter plates. Each plate included a reference compound which was ER-819544. The un-normalized IC50 value for a particular compound was divided by the IC50 value determined for the reference compound in the same microtiter plate to provide a relative potency value. The relative potency value was then multiplied by the established potency of the reference compound to provide the normalized HEKT-bet IC50 value. […] The IC50 values provided herein were obtained using this normalization method.

With `COCCN1C(=O)N2Cc3cc(F)cc(F)c3C(C)(C)C=C2C12CCN(Cc1cc(OC)cc(OC)c1)CC2` [compound 819704] the IC50 was 2760 nM.

`CC=C1C=C2N(Cc3cc(OC)cc(OC)c31)C(=O)N(CC)C21CCN(Cc2cc(OC)cc(OC)c2)CC1` [compound 819651] showed an IC50 of 110 nM.

`CCN1C(=O)N2Cc3cc(OC)cc(OC)c3C(C)(C)C=C2C12CCN(Cc1cn(C)c3ccccc13)CC2` [compound 819606] gave an IC50 of 2870 nM.

In the case of `COCCN1C(=O)N2Cc3cc(F)ccc3C(C)(C)C=C2C12CCN(Cc1cc(OC)cc(OC)c1)CC2` [compound 819672], the IC50 is reported as 877 nM.

In the case of `COCCN1C(=O)N2Cc3ccoc3C(C)(C)C=C2C12CCN(Cc1cc(OC)cc(OC)c1)CC2` [compound 819698], the IC50 is reported as 1980 nM.

With `CCc1ccc(CN2CCC3(CC2)C2=CC(C)c4c(cc(OC)cc4OC)CN2C(=O)N3CC)s1` (centres unmarked) [compound 819557] the IC50 was 510 nM.

For `CCN1C(=O)N2Cc3cc(OC)cc(OC)c3C(C)(C)C=C2C12CCN(Cc1ccccc1)CC2` [compound 819640], the IC50 was 542 nM.

Work on `CCN1C(=O)N2Cc3cc(OC)cc(OC)c3C(C)(C)C=C2C12CCN(Cc1ccnc3ccccc13)CC2` [compound 819601] yielded an IC50 of 260 nM.

`COc1cc(CN2CCC3(CC2)C2=CC(C)(C)c4c(cc(OC)cc4OC)CN2C(=O)N3Cc2ccc(-n3cccn3)cc2)cc(OC)c1` [compound 819663] showed an IC50 of 637 nM.

`COc1cc2c(c(OC)c1OC)C(C)C=C1N(C2)C(=O)N(CCO)C12CCN(Cc1cc(C)cc(C)c1)CC2` (centres unmarked) [compound 819735] was tested, and the IC50 was 140 nM.

Work on `COCCN1C(=O)N2Cc3cc(OC)c(OC)c(OC)c3C(C)(C)C=C2C12CCN(Cc1cc(OC)cc(OC)c1)CC2` [compound 819701] yielded an IC50 of 21 nM.
